Values of other authors in patent US20090093542A1, “Copper antagonist compositions” (priority 2007, published 2009).
Blank lines part the entries; values can stand above or below the compound they belong to.

Assays:
[1] = long-term use in Wilson's disease
[2] = solution of the free base itself

- solubility in alcohol (alcohol): slightly soluble
- solubility in ether, acetone, benzene, and carbon tetrachloride (ether, acetone, benzene, carbon tetrachloride): insoluble
- solubility in water (water): freely soluble
Structure (SMILES): CC(C)(S)[C@@H](N)C(=O)O [Penicillamine, 3-mercapto-D-valine]

Structure (SMILES): CC(=O)[O-].CC(=O)[O-].[Zn+2] [Zinc acetate]
- long-term or major side effects in patients [1]: has not shown any long-term or major side effects

- pH of a solution [2]: 14
Structure (SMILES): NCCNCCNCCN [trientine, triethylenetetramine]
